Results: patent US20250326769A1, “HETEROAROMATIC MACROCYCLIC ETHER CHEMOTHERAPEUTIC AGENTS” (Nuvalent, Inc., priority 2022, published 2025)
pIC50, pKi: −log10 of the molar value.

Assays:
[1] = target: Ba/F3 EML4-ALK v1 I1171N/D1203N (Homo sapiens (Human), UniProt Q9HC35+Q9UM73, D1203N/I1171N); assay: Ba/F3 cell proliferation assay, EML4-ALK v1 I1171N/D1203N; assay type: cell-based; conditions: for pIC50: Ba/F3 stable cells, 72 hours, CellTiter-Glo; for ETV6-TRKB / EML4-ALK v1 I1171N/D1203N / Selectivity for Ba/F3 EML4-ALK v1 I1171N-D1203N IC50 over Ba/F3 ETV6-TRKB IC50: TRKB selectivity, ratio of Ba/F3 IC50 values; for Selectivity for Ba/F3 EML4-ALK v1 I1171N-D1203N IC50 over Ba/F3 ETV6-TRKB IC50: Table 6 bins
Chain of Ba/F3 EML4-ALK v1 I1171N/D1203N (Q9UM73 other isoform, or with tags, fused parts or gaps I1171N/D1203N): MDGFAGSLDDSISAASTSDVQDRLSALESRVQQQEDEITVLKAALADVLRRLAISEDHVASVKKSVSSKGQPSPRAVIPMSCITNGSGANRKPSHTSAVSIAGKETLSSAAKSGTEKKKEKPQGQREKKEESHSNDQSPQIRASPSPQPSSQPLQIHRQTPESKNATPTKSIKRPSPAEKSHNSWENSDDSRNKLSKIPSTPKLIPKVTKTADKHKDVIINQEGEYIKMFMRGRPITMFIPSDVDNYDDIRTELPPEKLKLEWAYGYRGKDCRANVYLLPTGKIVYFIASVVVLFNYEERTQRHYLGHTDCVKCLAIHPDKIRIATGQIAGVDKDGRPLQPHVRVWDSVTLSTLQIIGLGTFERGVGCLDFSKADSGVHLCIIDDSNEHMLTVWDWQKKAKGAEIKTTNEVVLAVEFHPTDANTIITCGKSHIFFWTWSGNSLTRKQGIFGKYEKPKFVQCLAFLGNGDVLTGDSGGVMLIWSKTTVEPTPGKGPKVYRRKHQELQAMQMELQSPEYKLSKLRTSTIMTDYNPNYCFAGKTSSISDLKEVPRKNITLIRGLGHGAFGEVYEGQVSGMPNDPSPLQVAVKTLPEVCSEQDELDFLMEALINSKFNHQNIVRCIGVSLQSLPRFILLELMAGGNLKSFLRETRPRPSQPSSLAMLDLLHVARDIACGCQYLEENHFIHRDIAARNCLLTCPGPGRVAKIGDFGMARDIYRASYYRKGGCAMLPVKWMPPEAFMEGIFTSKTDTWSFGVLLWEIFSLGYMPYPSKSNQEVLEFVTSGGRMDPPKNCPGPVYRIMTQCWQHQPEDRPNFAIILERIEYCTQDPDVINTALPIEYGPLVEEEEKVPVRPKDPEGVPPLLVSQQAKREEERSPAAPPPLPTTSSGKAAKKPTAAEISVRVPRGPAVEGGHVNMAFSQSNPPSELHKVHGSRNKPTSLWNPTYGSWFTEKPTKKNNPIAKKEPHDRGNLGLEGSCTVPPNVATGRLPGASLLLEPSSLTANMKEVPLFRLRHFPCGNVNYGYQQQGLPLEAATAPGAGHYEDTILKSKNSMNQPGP
How it was run: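 Viability read by CellTiter-Glo luminescence after 72 h exposure to a 3-fold compound dilution series, with IC50 from four-parameter logistic regression. Cells were Ba/F3 rendered IL-3-independent through retroviral expression of EML4-ALK v1 I1171N/D1203N, puromycin-selected.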

Ba/F3 ETV6-TRKB = Ba/F3 ETV6-TRKB (Homo sapiens, UniProt Q16620); assay: Ba/F3 cell proliferation assay, ETV6-TRKB; assay type: cell-based; conditions: Ba/F3 stable cells, 72 hours, CellTiter-Glo; read-out: ETV6-TRKB IC50
Chain of Ba/F3 ETV6-TRKB (Q16620 32-822 limits assumed, change not shown): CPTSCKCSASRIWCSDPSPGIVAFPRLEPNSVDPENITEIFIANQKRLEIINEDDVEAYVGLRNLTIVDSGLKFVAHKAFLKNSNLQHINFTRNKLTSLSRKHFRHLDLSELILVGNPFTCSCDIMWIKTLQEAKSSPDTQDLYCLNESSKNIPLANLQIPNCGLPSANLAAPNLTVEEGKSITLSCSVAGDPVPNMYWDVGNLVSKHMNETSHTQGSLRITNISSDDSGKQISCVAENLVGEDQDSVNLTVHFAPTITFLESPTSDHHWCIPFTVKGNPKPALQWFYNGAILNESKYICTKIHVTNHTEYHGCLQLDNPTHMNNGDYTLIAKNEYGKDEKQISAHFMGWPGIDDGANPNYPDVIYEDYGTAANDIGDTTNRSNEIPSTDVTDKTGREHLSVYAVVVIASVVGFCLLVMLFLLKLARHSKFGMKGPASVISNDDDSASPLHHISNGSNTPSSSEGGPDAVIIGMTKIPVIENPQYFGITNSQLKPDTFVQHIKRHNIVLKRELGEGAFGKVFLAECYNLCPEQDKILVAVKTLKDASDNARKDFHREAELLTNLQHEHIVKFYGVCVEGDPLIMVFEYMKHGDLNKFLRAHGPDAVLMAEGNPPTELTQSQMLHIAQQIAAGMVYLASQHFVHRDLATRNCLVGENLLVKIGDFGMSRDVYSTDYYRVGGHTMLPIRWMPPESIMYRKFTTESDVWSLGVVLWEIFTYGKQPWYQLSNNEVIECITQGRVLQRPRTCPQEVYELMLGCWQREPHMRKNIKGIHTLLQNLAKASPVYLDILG
How it was run: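 Growth inhibition after 72 h compound exposure (3-fold series) was measured by CellTiter-Glo in IL-3-independent Ba/F3 cells stably expressing ETV6-TRKB. A four-parameter logistic fit of percent inhibition versus concentration gave IC50.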

TRKB-wt = TRKB-wt (Homo sapiens (Human), UniProt Q16620); assay: Biochemical kinase assay, TRKB-wt; conditions: apparent inhibitory constant, kinase domain, Morrison equation; read-out: TRKB-wt Ki^app
Chain of TRKB-wt (Q16620 538-807): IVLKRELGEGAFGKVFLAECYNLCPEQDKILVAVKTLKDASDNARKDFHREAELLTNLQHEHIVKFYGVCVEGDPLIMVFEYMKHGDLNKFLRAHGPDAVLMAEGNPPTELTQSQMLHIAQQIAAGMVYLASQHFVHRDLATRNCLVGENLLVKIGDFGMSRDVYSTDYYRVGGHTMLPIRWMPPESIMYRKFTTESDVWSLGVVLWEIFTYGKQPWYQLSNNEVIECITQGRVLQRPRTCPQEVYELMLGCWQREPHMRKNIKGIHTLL
Procedure: (§1) First, 250 nL of compound dissolved in DMSO (100-fold of the desired concentration) was dispensed into a 384-well plate. A 12.5 μL substrate solution containing ATP (2 mM) and fluorogenic phosphorylation substrate AQT0101 ([…] for ALK and ROS, AssayQuant) or AQT0104 (26 μM for TRKB, AssayQuant) in buffer (50 mM HEPES pH 7.5, […], 0.5 mM EGTA, 10 mM MgCl2) was added and mixed thoroughly. Then, a 12.5 μL kinase solution containing ALK (1.5 nM, Carna, 08-518), ALK I1171N/D1203N (4 nM, SignalChem, custom-made), ROS1 (0.6 nM, Carma, 08-163), ROS1-G2032R (0.5 nM, SignalChem, R14-121BG), or TRKB-wt (1.5 nM, SignalChem, N17-11G) kinase domains in buffer ([…] pH 7.5, 0.01% Brij-[…], 0.4 mg/mL BSA, 0.5 mM EGTA, and 10 mM MgCl2) was added and mixed thoroughly. The plate was sealed and read by SpectraMax Paradigm at λ=485 nm every 2 minutes for 120 minutes at 30° C. Initial rates of reaction (v) were calculated from the change in fluorescence intensity over time during the initial, linear portion of the reaction. Finally, apparent inhibitory constants (Ki^app) were determined from regression of v and I (inhibitor concentration) to Morrison Equation (E=enzyme concentration): […]
(§2) Compound potency can be interpreted by binning Ki^app values against the targets: bin A for high potency, Ki^app<50 nM; bin B for medium potency, 50 nM≤Ki^app<500 nM; and bin C for low potency, Ki^app≥500 nM. […] “nd” means not determined.

ALK I1171N/D1203N = ALK I1171N/D1203N (Homo sapiens (Human), UniProt Q9UM73, D1203N/I1171N); assay: Biochemical kinase assay, ALK I1171N/D1203N; conditions: apparent inhibitory constant, kinase domain, Morrison equation; read-out: ALK-I1171N-D1203N Ki^app
Chain of ALK I1171N/D1203N (Q9UM73 1116-1392 I1171N/D1203N): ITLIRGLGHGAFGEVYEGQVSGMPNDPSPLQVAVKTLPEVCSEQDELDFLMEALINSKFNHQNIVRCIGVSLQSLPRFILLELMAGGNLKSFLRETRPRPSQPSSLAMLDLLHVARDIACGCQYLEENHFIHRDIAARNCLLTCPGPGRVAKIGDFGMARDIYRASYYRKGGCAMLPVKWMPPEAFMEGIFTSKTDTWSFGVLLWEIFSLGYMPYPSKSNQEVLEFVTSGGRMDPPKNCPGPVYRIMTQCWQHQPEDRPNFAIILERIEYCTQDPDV
Procedure: as §1, §2

Ba/F3 EML4-ALK v1 I1171N = Ba/F3 EML4-ALK v1 I1171N (Homo sapiens (Human), UniProt Q9HC35+Q9UM73, I1171N); assay: Ba/F3 cell proliferation assay, EML4-ALK v1 I1171N; assay type: cell-based; conditions: for pIC50: Ba/F3 stable cells, 72 hours, CellTiter-Glo; for ETV6-TRKB / EML4-ALK v1 I1171N: TRKB selectivity, ratio of Ba/F3 IC50 values
Chain of Ba/F3 EML4-ALK v1 I1171N (Q9UM73 other isoform, or with tags, fused parts or gaps I1171N): as the sequence (Q9UM73 other isoform, or with tags, fused parts or gaps I1171N/D1203N) above, with N642D counted along it
Text: Genes encoding EML4-ALK v1 (variant 1), EML4-ALK v1 G1202R, EML4-ALK v1 I1171IN, EML4-ALK v1 D1203N, EML4-ALK v1 I1171N/D1203N, and ETV6-TRKB were synthesized at GeneRay, cloned into the retroviral construct pMSCV-puro (Biovector), and packaged into retroviral particles. The virus was used to infect Ba/F3 cells (RIKEN) at multiplicity of infection=1 for 1 day. Infected cells were rescued in media (RPMI-1640 with 10% fetal bovine serum and 1% streptomycin and penicillin) supplemented with mouse IL-3 (10 ng/mL) for 2 days, and stable cell lines were selected by IL-3 withdrawal and puromycin (0.8 μg/mL) for 7 days. Monoclones were selected by single-cell dilution in IL-3-free medium containing puromycin (0.8 μg/mL). Transformation of desired genes was confirmed by Sanger sequencing and western blot using the following antibodies: ALK (CST #3633) and pan-TRK (Abcam #76291).
Stable cells were plated in a 384-well plate. Test compounds were then added in a 3-fold dilution series and incubated for 72 hours. CellTiter-Glo reagent (Promega) was added. Luminescence was measured on a plate reader. Half-maximal inhibitory concentration (ICso) was calculated from percent inhibition and inhibitor concentration using four-parameter logistic regression. Compound potency can be interpreted by binning IC50 values: bin A for high potency, 0.1 nM IC50<50 nM; bin B for medium potency, 50 nM<IC50<500 nM; and bin C for low potency, IC50>500 nM. […] Exemplary data is given in Table 4 (nd is not determined).
Ba/F3 proliferation is driven by the transduced oncogenes in the same way that cancer cell proliferation in humans is driven by the expression of equivalent oncogenes.
TRKB selectivity was calculated by dividing a compound's TRKB potency by its primary target potency (e.g., ETV6-TRKB IC50/EML4-ALK v1 IC50). Compound selectivity can be interpreted by binning ratio values: bin A for very high selectivity, ratio≥30-fold; bin B for high selectivity, ratio≥10-fold but<30; bin C for moderate selectivity, ratio≥1 but<10; and bin D for low selectivity, ratio<1. […] (nd=not determined).

pIC50 [1]	pIC50 (Ba/F3 ETV6-TRKB)	pKi (TRKB-wt)	pKi (ALK I1171N/D1203N)	pIC50 (Ba/F3 EML4-ALK v1 I1171N)	SMILES	ETV6-TRKB / EML4-ALK v1 I1171N/D1203N [1]	Selectivity for Ba/F3 EML4-ALK v1 I1171N-D1203N IC50 over Ba/F3 ETV6-TRKB IC50 [1]	ETV6-TRKB / EML4-ALK v1 I1171N (Ba/F3 EML4-ALK v1 I1171N)
7.30 to 10.00	< 6.30	6.30 to 7.30	> 7.30	–	CON(C)C(=O)c1nn(CC2CC2)c2c1Cc1cn(C)nc1-c1ccc(F)cc1[C@@H](C)Oc1cc-2cnc1N [Example 34, N-methoxy-N-methyl-(R)-22-amino-3-(cyclopropylmethyl)-16-fluoro-10-methyl-19-methyl-20-oxa-3,4,10,11,23-pentaazapentacyclo[19.3.1.0^2,^6.0^8,^12.0^13,^18]pentacosa-1(24),2(6),4,8,11,13,15,17,21(25),22-decaene-5-carboxamide]	B (bin B for high selectivity, ratio≥10-fold but<30)	–	–
6.30 to 7.30	< 6.30	–	> 7.30	< 6.30	CCn1ncc2c1-c1cnc(N)c(c1)O[C@H](C)c1cc(F)ccc1-c1ncccc1C2=O [Example 76, (R)-23-amino-3-ethyl-17-fluoro-20-methyl-21-oxa-3,4,12,24-tetraazapentacyclo[20.3.1.0^2,^6.0^8,^13.0^14,^19]hexacosa-1(25),2(6),4,8(13),9,11,14,16,18,22(26),23-undecaen-7-one]	C (bin C for moderate selectivity, ratio≥1 but<10)	DD (bin DD for the selectivity with the ratio≥1 but<5)	C (bin C for moderate selectivity, ratio≥1 but<10)
7.30 to 10.00	7.30 to 10.00	> 7.30	> 7.30	–	CCn1nc(C(=O)N(C)C)c2c1-c1cnc(N)c(c1)O[C@H](C)c1cc(F)ccc1-c1ncccc1C2 [Example 43, N,N-dimethyl-(R)-23-amino-3-ethyl-17-fluoro-20-methyl-21-oxa-3,4,12,24-tetraazapentacyclo[20.3.1.0^2,^6.0^8,^13.0^14,^19]hexacosa-1(25),2(6),4,8(13),9,11,14,16,18,22(26),23-undecaene-5-carboxamide]	B (bin B for high selectivity, ratio≥10-fold but<30)	BB (bin BB for the selectivity with the ratio≥10-fold but<30)	–
6.30 to 7.30	< 6.30	6.30 to 7.30	> 7.30	–	C[C@H]1Oc2cc(cnc2N)-c2c(c(C(=O)N3CCCC3)nn2CC2CC2)Cc2cn(C)nc2-c2ccc(F)cc21 [Example 11, {(R)-22-amino-3-(cyclopropylmethyl)-16-fluoro-10-methyl-19-methyl-20-oxa-3,4,10,11,23-pentaazapentacyclo[19.3.1.0^2,^6.0^8,^12.0^13,^18]pentacosa-1(24),2(6),4,8,11,13,15,17,21(25),22-decaen-5-yl}(1-pyrrolidinyl)methanone]	B (bin B for high selectivity, ratio≥10-fold but<30)	–	–
7.30 to 10.00	< 6.30	6.30 to 7.30	–	7.30 to 10.00	CCN(C)C(=O)c1nn(CC2CC2)c2c1Cc1cn(C)nc1-c1ccc(F)cc1[C@@H](C)Oc1cc-2cnc1N [Example 38, N-ethyl-N-methyl-(R)-22-amino-3-(cyclopropylmethyl)-16-fluoro-10-methyl-19-methyl-20-oxa-3,4,10,11,23-pentaazapentacyclo[19.3.1.0^2,^6.0^8,^12.0^13,^18]pentacosa-1(24),2(6),4,8,11,13,15,17,21(25),22-decaene-5-carboxamide]	–	–	–
7.30 to 10.00	< 6.30	6.30 to 7.30	–	–	Cc1cc2n(n1)-c1c(F)cc(F)cc1[C@@H](C)Oc1cc(cnc1N)-c1c(c(C(=O)N(C)C)nn1CC1CC1)C2 [Example 44, N,N-dimethyl-(R)-22-amino-3-(cyclopropylmethyl)-14,16-difluoro-10,19-dimethyl-20-oxa-3,4,11,12,23-pentaazapentacyclo[19.3.1.0^2,^6.0^8,^12.0^13,^18]pentacosa-1(24),2(6),4,8, 10,13,15,17,21(25),22-decaene-5-carboxamide]	–	–	–
7.30 to 10.00	< 6.30	6.30 to 7.30	–	–	C[C@H]1Oc2cc(cnc2N)-c2c(c(C(N)=O)nn2CC2CC2)Cc2cccnc2-c2ccc(F)cc21 [Example 6, (R)-23-amino-3-(cyclopropylmethyl)-17-fluoro-20-methyl-21-oxa-3,4,12,24-tetraazapentacyclo[20.3.1.0^2,^6.0^8,^13.0^14,^19]hexacosa-1(25),2(6),4,8(13),9,11,14,16, 18,22(26),23-undecaene-5-carboxamide]	–	–	–
6.30 to 7.30	< 6.30	–	6.30 to 7.30	–	CCn1nc(C(=O)N(C)C)c2c1-c1cnc(N)c(c1)O[C@H](C)c1cc(F)ccc1-c1ncccc1C2=O [Example 47, N,N-dimethyl-(R)-23-amino-3-ethyl-17-fluoro-20-methyl-7-oxo-21-oxa-3,4,12,24-tetraazapentacyclo[20.3.1.0^2,^6.0^8,^13.0^14,^19]hexacosa-1(25),2(6),4,8(13),9,11,14,16,18,22(26),23-undecaene-5-carboxamide]	–	BB (bin BB for the selectivity with the ratio≥10-fold but<30)	–
7.30 to 10.00	6.30 to 7.30	–	–	7.30 to 10.00	Cc1nc2c(s1)C(=O)c1nn(C)c(C#N)c1-c1cnc(N)c(c1)O[C@H](C)c1cc(F)ccc1-2 [Example 73, (R)-22-amino-16-fluoro-4-methyl-10,19-dimethyl-7-oxo-20-oxa-9-thia-4,5,11,23-tetraazapentacyclo[19.3.1.0^2,^6.0^8,^12.0^13,^18]pentacosa-1(24),2,5,8(12),10,13,15,17,21(25),22-decaene-3-carbonitrile]	–	–	–
7.30 to 10.00	6.30 to 7.30	–	–	7.30 to 10.00	CCn1nc2c(c1C#N)-c1cnc(N)c(c1)O[C@H](C)c1cc(F)ccc1-c1ncccc1C2=O [Example 50, (R)-23-amino-4-ethyl-17-fluoro-20-methyl-7-oxo-21-oxa-4,5,12,24-tetraazapentacyclo[20.3.1.0^2,^6.0^8,^13.0^14,^19]hexacosa-1(25),2,5,8,10,12,14,16,18,22(26),23-undecaene-3-carbonitrile]	A (bin A for very high selectivity, ratio≥30-fold)	AA (bin AA for the selectivity with the ratio≥30-fold)	A (bin A for very high selectivity, ratio≥30-fold)
